Literature values in patent US12109217B2, “Bioactive agents included in functionalized starch having a single helix V-structure” (B-ORGANIC FILMS CORP., priority 2014, dated 2024).
Where two headings read alike, the source gives them in different places. Blank lines part the entries; values can stand above or below the compound they belong to.

Assays:
[1] = in vivo

solubility (water / aqueous medium (and oil where stated)): poorly soluble in aqueous medium
SMILES: CC(=O)O[C@H]1C(=O)[C@@]2(C)[C@H]([C@H](OC(=O)c3ccccc3)[C@]3(O)C[C@H](OC(=O)[C@H](O)[C@@H](NC(=O)c4ccccc4)c4ccccc4)C(C)=C1C3(C)C)[C@]1(OC(C)=O)CO[C@@H]1C[C@@H]2O [Paclitaxel]

oral bioavailability [1]: about 30%
SMILES: C[C@@H]1CC[C@H]2[C@@H](C)C(=O)O[C@@H]3O[C@@]4(C)CC[C@@H]1[C@]32OO4 [Artemisinin]

solubility in water (neutral pH): insoluble in water | solubility (pH 1-2 (similar to gastric pH)): freely soluble
SMILES: COC(=O)[C@H](c1ccccc1Cl)N1CCc2sccc2C1 [Clopidogrel bisulfate]
